{
  "source": "patent US7960410B2",
  "about": "“Method for treating insulin resistance, abdominal obesity, hypertension, hyperinsulinemia, and elevated blood lipids with a cortisol inhibitor” (Cortendo AB, priority 1994, dated 2011)",
  "tested_on": "women with diabetes mellitus type II",
  "experiment": "Clinical tests of women with diabetes mellitus type II treated with ketoconazole",
  "assay_type": "in vivo, human",
  "details": "for Serum-ASAT / Serum-ALAT / GIR (glucose infusion rate during euglycemic glucose clamp), indicating insulin sensitivity / Fasting serum total cholesterol / Diastolic blood pressure measured after 5 min. in supine position, 2 measurements averaged / Systolic blood pressure measured after 5 min. in supine position, 2 measurements averaged / Fasting blood glucose: after treatment",
  "description": "We have investigated a group of people with diabetes mellitus type II.\nGroup 1 consists of 3 patients (mean age: 46 years) treated with ketoconazole for 2 weeks, administered orally 22:00 in the evening in the dose of 400 mg.\nGroup 2 consists of 5 patients (mean age: 51 years) treated with ketoconazole for 6 weeks, administered orally 22:00 in the evening in the dose of 400 mg. Results are expressed as mean values within groups.",
  "key": {"[1]": {"details": "diabetes mellitus type II patients, after vs before treatment"}},
  "note": "Values joined by “and” are separate entries in the source; they are usually repeats but may differ in a detail not shown here. Identical values can stand only once. “Also recorded” adds a separate entry of the source.",
  "data": [
    {"compound": "CC(=O)N1CCN(c2ccc(OCC3COC(Cn4ccnc4)(c4ccc(Cl)cc4Cl)O3)cc2)CC1", "note": "(stereo not shown) [ketoconazole]", "values": [
      {"measurement": "Serum-ASAT", "setting": "Group 1: 400 mg orally 22:00 for 2 weeks, group mean (before: 0.36)", "value": 0.33, "unit": "μkat/L"},
      {"measurement": "Serum-ALAT", "setting": "Group 1: 400 mg orally 22:00 for 2 weeks, group mean (before: 0.61)", "value": 0.52, "unit": "μkat/L"},
      {"measurement": "GIR (glucose infusion rate during euglycemic glucose clamp), indicating insulin sensitivity", "setting": "Group 1: 400 mg orally 22:00 for 2 weeks, group mean (before: 0.9)", "value": "1.85 mg glucose per minute divided by lean body mass"},
      {"measurement": "Fasting serum total cholesterol", "setting": "Group 1: 400 mg orally 22:00 for 2 weeks, group mean (before: 5.80)", "value": 5.67, "unit": "mmol/L"},
      {"measurement": "Diastolic blood pressure measured after 5 min. in supine position, 2 measurements averaged", "setting": "Group 1: 400 mg orally 22:00 for 2 weeks, group mean (before: 70)", "value": 70, "unit": "mm Hg"},
      {"measurement": "Systolic blood pressure measured after 5 min. in supine position, 2 measurements averaged", "setting": "Group 1: 400 mg orally 22:00 for 2 weeks, group mean (before: 140)", "value": 135, "unit": "mm Hg"},
      {"measurement": "Fasting blood glucose", "setting": "Group 1: 3 patients, 400 mg orally 22:00 for 2 weeks, group mean (before: 10.20)", "value": 8.77, "unit": "mmol/L"},
      {"measurement": "Serum-ASAT", "setting": "Group 2: 400 mg orally 22:00 for 6 weeks, group mean (before: 0.26)", "value": 0.25, "unit": "μkat/L"},
      {"measurement": "Serum-ALAT", "setting": "Group 2: 400 mg orally 22:00 for 6 weeks, group mean (before: 0.40)", "value": 0.37, "unit": "μkat/L"},
      {"measurement": "GIR (glucose infusion rate during euglycemic glucose clamp), indicating insulin sensitivity", "setting": "Group 2: 400 mg orally 22:00 for 6 weeks, group mean (before: 2.97)", "value": "4.32 mg glucose per minute divided by lean body mass"},
      {"measurement": "Fasting serum total cholesterol", "setting": "Group 2: 400 mg orally 22:00 for 6 weeks, group mean (before: 4.80)", "value": 4.10, "unit": "mmol/L"},
      {"measurement": "Diastolic blood pressure measured after 5 min. in supine position, 2 measurements averaged", "setting": "Group 2: 400 mg orally 22:00 for 6 weeks, group mean (before: 75)", "value": 72, "unit": "mm Hg"},
      {"measurement": "Systolic blood pressure measured after 5 min. in supine position, 2 measurements averaged", "setting": "Group 2: 400 mg orally 22:00 for 6 weeks, group mean (before: 125)", "value": 123, "unit": "mm Hg"},
      {"measurement": "Fasting blood glucose", "setting": "Group 2: 5 patients, 400 mg orally 22:00 for 6 weeks, group mean (before: 7.20)", "value": 7.10, "unit": "mmol/L"},
      {"measurement": "Effect on blood pressure (in words)", "setting": "[1]", "value": "decreasing blood pressure values"},
      {"measurement": "Effect on insulin sensitivity / insulin resistance (in words), euglycemic glucose clamp", "setting": "[1]", "value": "a reduction of the insulin insensitivity (resistance); also recorded: improved insulin sensitivity; also recorded: a remarkable improvement of insulin sensitivity"},
      {"measurement": "Effect on plasma cholesterol levels (in words)", "setting": "[1]", "value": "Reduced cholesterol levels in the plasma"},
      {"measurement": "Effect on blood glucose (in words)", "setting": "diabetes mellitus type II patients, after vs before treatment for 2 and 6 weeks, fasting or 2 hours after i.v. glucose infusion", "value": "lower blood glucose after treatment compared to before treatment; also recorded: a decrease in blood glucose"},
      {"measurement": "Blood glucose 2 hours after start of an i.v. glucose infusion", "setting": "human, in vivo", "value": "7.90 mmol/L and 5.76 mmol/L"}
    ]}
  ]
}
